target: T1, CCR2 (Homo sapiens, UniProt P41597); test: CCR2 receptor membrane binding assay ([125I]MCP-1, THP-1 membranes, SPA beads); settings: dissociation constant hKi; THP-1 cell membranes, [125I]MCP-1, bound radioactivity after 8 h
T1 construct: Membranes were prepared from THP-1 cells; endogenous in cells; host or cells: THP-1 (human acute monocytic leukaemia cells), membrane preparation
T1 sequence (P41597 1-360 isoform P41597-2): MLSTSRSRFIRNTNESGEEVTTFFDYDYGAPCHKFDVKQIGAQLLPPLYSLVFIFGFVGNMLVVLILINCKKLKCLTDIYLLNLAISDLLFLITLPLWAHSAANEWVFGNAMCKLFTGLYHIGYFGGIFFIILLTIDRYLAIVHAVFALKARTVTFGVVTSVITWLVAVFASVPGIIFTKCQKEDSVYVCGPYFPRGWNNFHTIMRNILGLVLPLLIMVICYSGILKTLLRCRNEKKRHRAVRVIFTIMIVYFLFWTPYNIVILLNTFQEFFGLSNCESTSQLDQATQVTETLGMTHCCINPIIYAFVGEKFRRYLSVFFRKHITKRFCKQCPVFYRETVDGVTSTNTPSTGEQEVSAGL
Experimental: The above exemplary substances have been tested for binding to CCR2 using a binding assay as outlined herein below:
THP-1 cells (human acute monocytic leukaemia cells) were cultured under standardized conditions at 37° C. and 5% CO2 in a humidified incubator. THP-1 cells were cultivated in RPMI 1640 medium (Gibco 21875) containing 1% MEM-NEAA (Gibso 11140) 2 mM L-glutamine, 1.5 g/L sodium bicarbonate, 4.5 g/L glucose, 10 mM HEPES and 1.0 mM sodium pyruvate, 90%; 10% fetal calf serum (FCS Gibco 10500-064).
Membranes were prepared from THP-1 cells. THP-1 cells were centrifuged at 300×g at 4° C. for 10 min. The cell pellet was resuspendet in Phosphate Buffer Saline (PBS, including 10 μM Pefabloc and a protease inhibitor mix ‘complete’, Boehringer Mannheim (1 tablet/50 ml)), to a concentration of […]. The membrane preparation was performed by disrupting the cells by nitrogen […] (at 50 bar, for 1 h) in a “Nitrogen Bombe” (Parr Instrument). Cell debris was removed by centrifugation (800×g at 4° C., 1 min). The supernatant was centrifuged at 80000×g, 4° C. for 30 min to sediment the cell membranes. Usually 50 mg of protein (Bradford assay) were yielded from 1×10E9 cells. The membranes were resuspendet in 25 mM HEPES, 25 mM MgCl2, 1 mM CaCl2, 10% Glycerine for storage in aliquots at −80° C. in 25 mM HEPES, 25 mM MgCl2, 1 mM CaCl2, 10% Glycerine and stored at −80° C.
Receptor Membrane Binding Assay:
Perkin Elmer NEX 332 Jod 125 MCP-1, Stock: 2200 Ci/mmol solved in 2000 μl assay buffer, stored at −20° C. THP-1 membrane were adjusted with 25 mM HEPES, pH 7.2; 5 mM MgCl2; 0.5 mM CaCl2; 0.2% BSA assay buffer to a concentration of 2.5 μg/15 μl. Amersham Biosciences PVT-WGA Beads (RPNQ0001) were adjusted with assay buffer to a concentration of 0.24 mg/30 μl. For preparation of the membrane-bead-suspension membranes and beads were incubated for 30 min at RT under rotation (60 rpm) with a ratio of 1:2. Test compounds dissolved in 100% DMSO to a concentration of 10 mM and are further diluted with 100% DMSO to 1 mM. All additional compound dilutions were obtained with assay buffer, final 1% DMSO. Compounds, membrane-bead-suspension and [125I]MCP-1 (ca. 25000 cpm/10 μl) were incubated. Bound radioactivity was determined by scintillation counter after 8 h. Determination of affinity of test compounds (dissociation constant hKi) is calculated by iterative fitting of experimental data using the “easy sys” program, which is based on law of mass action (Schittkowski K. (1994), Numerische Mathematik, Vol. 68, 129-142).

SMILES	Ki [nM]
COc1nc(NC[C@H]2CCC[C@@H](c3ccc(C)cc3)O2)c(C)c(C(=O)N2CCC(N[C@@H]3CCOC[C@@H]3OC)CC2)n1 [Example 53z]	3
COc1nc(NC[C@H]2CCC[C@@H](c3ccc(C(F)(F)F)cc3)O2)cc(C(=O)N2CCC(N[C@@H]3CCOC[C@@H]3OC)CC2)n1 [Example 53o]	1
CO[C@@H]1COCC[C@@H]1NC1CCN(C(=O)c2cc(NC[C@H]3CCC[C@@H](c4ccc(OC(F)(F)F)cc4)O3)nc(C(F)(F)F)n2)CC1 [Example 53l]	0.5
CO[C@@H]1COCC[C@@H]1NC1CCN(C(=O)c2cc(NC[C@H]3CCC[C@@H](c4ccc(C(F)(F)F)cc4)O3)nc(C(F)(F)F)n2)CC1 [Example 53t]	0.4
COc1nc(NC[C@H]2CCC[C@@H](c3ccc(C(F)(F)F)cc3)O2)c(C)c(C(=O)N2CCC(N[C@H]3CCOC[C@H]3OC)CC2)n1 [Example 53ac]	0.8
CO[C@@H]1COCC[C@@H]1NC1CCN(C(=O)c2cc(NC[C@H]3CCC[C@@H](c4ccc(OC(F)(F)F)cc4)O3)ncn2)CC1 [Example 28m]	1
COc1nc(NC[C@H]2CCC[C@@H](c3ccccc3)O2)c(C)c(C(=O)N2CCC(N[C@H]3CCOC[C@H]3OC)CC2)n1 [Example 53ag]	5
COc1nc(NC[C@H]2CCC[C@@H](c3ccc(C)cc3)O2)c(C)c(C(=O)N2CCC(N[C@H]3CCOC[C@H]3OC)CC2)n1 [Example 53aa]	2
COc1nc(NC[C@H]2CCC[C@@H](c3ccc(OC(F)(F)F)cc3)O2)cc(C(=O)N2CCC(N[C@@H]3CCOC[C@@H]3OC)CC2)n1 [Example 53q]	1
CO[C@@H]1COCC[C@@H]1NC1CCN(C(=O)c2nc(C(F)(F)F)nc(NC[C@H]3CCC[C@@H](c4ccccc4)O3)c2C)CC1 [Example 53ai]	1.1

The remaining lines, values ahead:

Ki [nM]	SMILES
0.4	CO[C@H]1COCC[C@H]1NC1CCN(C(=O)c2ncnc(NC[C@H]3CCC[C@@H](c4ccc(SC(F)(F)F)cc4)O3)c2C)CC1 [Example 53al]
203	COC1CCN(C2CCN(C(=O)c3ncnc(NC[C@@H]4CCC[C@H](c5cccc(C(F)(F)F)c5)O4)c3C)CC2)CC1 [Example 3]
36	Cc1c(NC[C@@H]2CCC[C@H](c3cccc(C(F)(F)F)c3)O2)ncnc1C(=O)N1CCC(N2CCC(N(C)S(C)(=O)=O)CC2)CC1 [Example 7]
479	Cc1c(NCC2CCCC(c3ccc(F)cc3)O2)ncnc1C(=O)N1CCC(N2CCC(N(C)S(C)(=O)=O)CC2)CC1 (centres unmarked) [Example 14]
9	Cc1ccc([C@@H]2CCC[C@H](CNc3ncnc(C(=O)N4CCC(N5CCC6(CC5)Cc5ccccc5O6)CC4)c3C)O2)cc1 [Example 53x]
162	Cc1ccc([C@H]2CCC[C@@H](CNc3ncnc(C(=O)N4CCC(N5CCC(N(C)S(C)(=O)=O)CC5)CC4)c3C)O2)cc1 [Example 19]
78	Cc1c(NC[C@@H]2CCC[C@H](c3ccc(C(C)(C)C#N)cc3)O2)ncnc1C(=O)N1CCC(N2CCC(N(C)S(C)(=O)=O)CC2)CC1 [Example 28f]
3	CO[C@@H]1COCC[C@@H]1NC1CCN(C(=O)c2ncnc(NC[C@H]3CCC[C@@H](c4ccc(Cl)cc4)O3)c2C)CC1 [Example 41]
5	CO[C@H]1COCC[C@H]1N(C)C1CCN(C(=O)c2ncnc(NC[C@H]3CCC[C@@H](c4ccc(C(F)(F)F)cc4)O3)c2C)CC1 [Example 54a]
8	Cc1ccc([C@@H]2CCC[C@H](CNc3ncnc(C(=O)N4CCC(N5CCC(N(C)S(C)(=O)=O)CC5)CC4)c3C)O2)cc1 [Example 1]
13	Cc1ccc([C@@H]2CCC[C@H](CNc3ncnc(C(=O)N4CCC(N5CCC(NS(C)(=O)=O)CC5)CC4)c3C)O2)cc1 [Example 9]
166	CO[C@H]1COCC[C@H]1NC1CCN(C(=O)c2ncnc(NC[C@@H]3CCC[C@H](c4ccc(Cl)cc4)O3)c2C)CC1 [Example 44]
4	CO[C@H]1COCC[C@H]1NC1CCN(C(=O)c2cc(NC[C@H]3CCC[C@@H](c4ccc(C)cc4)O3)ncn2)CC1 [Example 28h]

From patent publication US8765949B2, “CCR2 receptor antagonists and uses thereof” (Boehringer Ingelheim International GmbH, priority 2009, dated 2014)
